From patent US11319322B2, “Substituted aryl ether compound, preparation method thereof, pharmaceutical composition and use thereof” (Xiamen University, priority 2017, dated 2022)

Experiments:
CCDC6-RET-BaF3 = biological target: T1, CCDC6-RET-BaF3 (Homo sapiens, UniProt P07949); test: Growth inhibition of CCDC6-RET-BaF3 cells stably transfected with kinase (MTS); assay type: cell-based; settings: 48 h, read-out: CCDC6-RET (IC50/nM)
T1 construct: fused on or other part: Q16204 (Coiled-coil domain-containing protein 6)
Experimental: (§1) Growth inhibitory activity of compounds on cell lines stably transfected with kinase
(§2) The activity of compounds against kinase RET is evaluated by their effect of inhibiting growth of cell lines stably transfected with kinase CCDC6-RET-BaF3, KIF5B-RET-BaF3, and wild-type BaF3 (Proc. Natl. Acad. Sci. USA., 2006, 103, 3153-8.). The growth of the cell lines stably transfected with kinase CCDC6-RET-BaF3, KIF5B-RET-BaF3 depends on their kinase activity. If a compound can inhibit the activity of the kinase RET per se or the activity of the RET signaling pathway, the compound can inhibit the growth of BaF3 cells stably transfected with kinase. […] Therefore, a larger ratio between IC50 of a compound to wild-type BaF3 and IC50 of the compound to the cell lines stably transfected with kinase CCDC6-RET-BaF3, KIF5B-RET-BaF3 indicates better targeting.
(§3) The specific test method is given as follows:
(§4) 1) Medium: DMEM (Dulbecco's modified eagle medium) or RPMI 1640 (containing 10% fetal bovine serum, 100 μg/mL ampicillin, 100 μg/mL streptomycin).
(§5) 2) Reagents: MTS reaction solution (containing 2 mg/mL of MTS [3-(4,5-dimethylthiazol-2-yl)-5-(3-carboxymethoxyphenyl)-2-(4-sulfophenyl)-2H-tetrazolium, inner Salt]; 100 μg/mL PES (phenazine […])).
(§6) 3) Compound test: cells stably transfected with kinase (CCDC6-RET-BaF3, KIF5B-RET-BaF3) or wild-type BaF3 cells (2×10^4 cells/well) were incubated into a 96-well culture plate, the volume of cell culture fluid was 90 μL, and then 10 μL of the compound at each gradient concentration was added (the highest concentration was 10 μM, which was diluted stepwise by ⅓, and 8 concentration points were set in total; the system contained 0.1% DMSO (dimethyl sulfoxide)). The cell plate with uniformly mixed compound was cultured in a cell culture incubator (37° C.; 5% CO2) for 48 h, then 20 μL of MTS reaction solution was added, uniformly mixed and incubated in the cell culture incubator (37° C.; 5% CO2) for 1-4 hr, OD values at 490 nm were measured by a microplate reader (VARIOSKAN FLASH, Thermo). Three parallels were set in each group of experiments, with 0.1% (a final concentration) DMSO as a negative control, and a medium without cells or compounds as a blank control. The cell growth inhibition rate was calculated by the following formula: Cell growth inhibition rate %=1−(ODexperimental group−ODblank group)/(ODnegative group−ODblank group)×100%
(§7) 4) IC50 calculation: The semi-inhibitory concentration of the compound acting on cell growth was calculated using GradPad Prism 5 software according to the measured cell growth inhibition rate.

KIF5B-RET-BaF3 = biological target: T2, KIF5B-RET-BaF3 (Homo sapiens, UniProt P07949); test: Growth inhibition of KIF5B-RET-BaF3 cells stably transfected with kinase (MTS); assay type: cell-based; settings: 48 h, read-out: KIF5B-RET (IC50/nM)
T2 construct: fused on or other part: P33176 (Kinesin-1 heavy chain)
Experimental: as §1, §2, §3, §4, §5, §6, §7

T1 sequence (P07949 whole entry, change not shown, the tested form may be a part): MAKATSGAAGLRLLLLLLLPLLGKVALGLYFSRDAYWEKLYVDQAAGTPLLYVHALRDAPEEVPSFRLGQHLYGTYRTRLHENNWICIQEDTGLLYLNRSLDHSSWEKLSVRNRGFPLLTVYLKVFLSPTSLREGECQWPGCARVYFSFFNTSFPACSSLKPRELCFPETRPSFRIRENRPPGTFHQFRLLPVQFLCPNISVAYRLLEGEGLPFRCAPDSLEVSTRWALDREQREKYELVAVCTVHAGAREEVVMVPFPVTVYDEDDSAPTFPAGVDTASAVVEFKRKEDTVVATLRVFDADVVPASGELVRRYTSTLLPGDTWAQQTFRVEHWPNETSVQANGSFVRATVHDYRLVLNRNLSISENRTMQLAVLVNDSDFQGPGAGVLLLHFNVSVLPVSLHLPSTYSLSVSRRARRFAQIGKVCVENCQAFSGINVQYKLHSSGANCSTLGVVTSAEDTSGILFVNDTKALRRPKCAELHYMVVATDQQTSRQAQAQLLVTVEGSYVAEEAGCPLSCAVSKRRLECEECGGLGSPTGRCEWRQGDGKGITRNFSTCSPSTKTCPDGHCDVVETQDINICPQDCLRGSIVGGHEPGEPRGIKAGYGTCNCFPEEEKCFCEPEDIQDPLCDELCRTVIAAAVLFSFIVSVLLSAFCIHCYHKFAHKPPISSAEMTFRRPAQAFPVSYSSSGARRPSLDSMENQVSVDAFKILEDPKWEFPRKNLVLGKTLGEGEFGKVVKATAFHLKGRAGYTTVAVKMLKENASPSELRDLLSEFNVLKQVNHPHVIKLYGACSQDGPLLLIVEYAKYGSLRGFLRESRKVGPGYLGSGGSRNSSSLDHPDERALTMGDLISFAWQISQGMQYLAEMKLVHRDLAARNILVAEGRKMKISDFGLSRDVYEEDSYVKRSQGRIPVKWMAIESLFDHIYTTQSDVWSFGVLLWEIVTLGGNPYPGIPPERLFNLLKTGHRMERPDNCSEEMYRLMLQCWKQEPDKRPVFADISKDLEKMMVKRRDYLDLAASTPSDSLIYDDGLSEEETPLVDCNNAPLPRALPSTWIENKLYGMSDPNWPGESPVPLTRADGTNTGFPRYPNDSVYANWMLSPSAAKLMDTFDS
T2 sequence (P07949 whole entry, change not shown, the tested form may be a part): as above

Compound | GI50 (CCDC6-RET-BaF3) [nM] | GI50 (KIF5B-RET-BaF3) [nM]
CN1CCN(Cc2cc(NC(=O)c3cccc(Oc4nc(-c5cccnc5)nc5c4cnn5C)c3)cc(C(F)(F)F)c2)CC1 [II-p-1] | 268 | 251
Cc1cn(-c2cc(NC(=O)c3ccc(C)c(Oc4nc(-c5ccncc5)nc5c4cnn5C)c3)cc(C(F)(F)F)c2)cn1 [II-t-2] | 1570 | 2620
Cc1ccc(C(=O)Nc2cc(C(F)(F)F)cc(C(F)(F)F)c2)cc1Oc1nc(-c2cccnc2)nc2c1cnn2C [II-v-1] | 7230 | 7940
CCC(=O)NCC1CCN(c2ccc(NC(=O)c3ccc(C)c(Oc4nc(-c5cccnc5)nc5c4cnn5C)c3)cc2C(F)(F)F)CC1 [II-v-7] | 1200 | 1200
CCC(=O)NC1CCN(c2ccc(NC(=O)c3ccc(C)c(Oc4nc(-c5ccncc5)nc5c4cnn5C)c3)cc2C(F)(F)F)CC1 [II-v-8] | 346 | 407
CCC(=O)NCC1CCN(c2ccc(NC(=O)c3ccc(C)c(Oc4nc(-c5ccncc5)nc5c4cnn5C)c3)cc2C(F)(F)F)CC1 [II-v-9] | 961 | 934
CC(=O)NCC1CCN(c2ccc(NC(=O)c3ccc(C)c(Oc4nc(-c5cccnc5)nc5c4cnn5C)c3)cc2C(F)(F)F)CC1 [II-v-10] | 492 | 463
CC(=O)NCC1CCN(c2ccc(NC(=O)c3ccc(C)c(Oc4nc(-c5ccncc5)nc5c4cnn5C)c3)cc2C(F)(F)F)CC1 [II-v-11] | 546 | 646
CCC(=O)NC1CCN(c2ccc(NC(=O)c3ccc(C)c(Oc4nc(-c5cccnc5)nc5c4cnn5C)c3)cc2C(F)(F)F)CC1 [II-v-12] | 364 | 118
CC(=O)NC1CCN(c2ccc(NC(=O)c3ccc(C)c(Oc4nc(-c5ccncc5)nc5c4cnn5C)c3)cc2C(F)(F)F)CC1 [II-v-13] | 533 | 587
CCS(=O)(=O)NC1CCN(c2ccc(NC(=O)c3ccc(C)c(Oc4nc(-c5cccnc5)nc5c4cnn5C)c3)cc2C(F)(F)F)CC1 [II-v-14] | 73.9 | 69.3
CCS(=O)(=O)NC1CCN(c2ccc(NC(=O)c3ccc(C)c(Oc4nc(-c5ccncc5)nc5c4cnn5C)c3)cc2C(F)(F)F)CC1 [II-v-15] | 114 | 135
CCC(=O)NCC1CCN(c2ccc(NC(=O)c3ccc(C)c(Oc4nc(-c5cccnc5)nc5[nH]ncc45)c3)cc2C(F)(F)F)CC1 [II-v-16] | 2490 | 3070
CCC(=O)NCC1CCN(c2ccc(NC(=O)c3ccc(C)c(Oc4nc(-c5ccncc5)nc5[nH]ncc45)c3)cc2C(F)(F)F)CC1 [II-v-17] | 900 | 1040

Now from value to compound:

GI50 (CCDC6-RET-BaF3) [nM] | GI50 (KIF5B-RET-BaF3) [nM] | Compound
54.9 | 124 | Cc1ccc(C(=O)Nc2ccc(CN3CCN(C)CC3)c(C(F)(F)F)c2)cc1Oc1ncnc2c1cnn2C [II-m-19]
1100 | 916 | Cc1ccc(C(=O)Nc2ccc(CN3CCN(C)CC3)c(C(F)(F)F)c2)cc1Oc1nc(-c2ccncc2)nc2c1cnn2C(C)C [II-m-23]
1520 | 440 | Cc1ccc(Oc2nc(-c3ccncc3)nc3c2cnn3C)cc1C(=O)Nc1ccc(CN2CCN(C)CC2)c(C(F)(F)F)c1 [II-n-2]
4170 | 4020 | CN1CCN(Cc2ccc(NC(=O)c3cc(Oc4nc(-c5cccnc5)nc5c4cnn5C)ccc3Cl)cc2C(F)(F)F)CC1 [II-o-1]
108 | 130 | CN1CCN(Cc2ccc(NC(=O)c3cc(Oc4nc(-c5ccncc5)nc5c4cnn5C)ccc3Cl)cc2C(F)(F)F)CC1 [II-o-2]
458 | 521 | CN1CCN(Cc2cc(NC(=O)c3cccc(Oc4nc(-c5ccncc5)nc5c4cnn5C)c3)cc(C(F)(F)F)c2)CC1 [II-p-2]
264 | 482 | Cc1ccc(C(=O)Nc2cc(CN3CCN(C)CC3)cc(C(F)(F)F)c2)cc1Oc1nc(-c2cccnc2)nc2c1cnn2C [II-s-1]
188 | 355 | Cc1ccc(C(=O)Nc2cc(CN3CCN(C)CC3)cc(C(F)(F)F)c2)cc1Oc1nc(-c2ccncc2)nc2c1cnn2C [II-s-2]
